Measured values reported in patent US11591341B2 (ALIGOS THERAPEUTICS, INC., priority 2019, dated 2023).

System: HBV
Test: HBV-DNA Antiviral Assay Using HepG2.117 Cells (intracellular HBV DNA by qPCR)
Format: cell-based, hepatitis B virus (genotype D)
Conditions: Hepatitis B virus, HepG2.117
Method in brief: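 Endpoint: qPCR copy number of intracellular HBV DNA after 3-day compound exposure, with inhibition set relative to the 2% DMSO control. The cells were doxycycline-free HepG2.117 carrying a Tet-off genotype D genome, dosed at nine 4-fold dilutions. A duplicate plate gave ATP-based viability (CC50).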

Row | Structure (SMILES) | EC50
1 | COc1cc2occc2cc1CNC(=O)c1c2n(c(=O)n1-c1ccc(OC(C)C)cc1)CCN(C(=O)c1ccc(Br)c(Cl)c1)C2 [Example 255, 7-(4-bromo-3-chloro-benzoyl)-2-(4-isopropoxyphenyl)-N-[(6-methoxybenzofuran-5-yl)methyl]-3-oxo-6,8-dihydro-5H-imidazo[1,5-a]pyrazine-1-carboxamide] | 100 to 500 nM
2 | COc1ccc([C@@H](C)NC(=O)c2c3n(c(=O)n2-c2ccc(OC)cc2)CCN(C(=O)c2ccc(Br)c(Cl)c2)C3)cc1 (stereo in doubt) [Example 72, 7-(4-bromo-3-chloro-benzoyl)-2-(4-methoxyphenyl)-3-oxo-N-[rac-(1R)-1-(4-methoxyphenyl)ethyl]-6,8-dihydro-5H-imidazo[1,5-a]pyrazine-1-carboxamide] | 500 to 5000 nM
3 | COc1ccc(-n2c(C(=O)NC(C(N)=O)c3ccccc3)c3n(c2=O)CCN(C(=O)c2ccc(Br)c(Cl)c2)C3)cc1 (racemic) [Example 206, 7-(4-bromo-3-chloro-benzoyl)-2-(4-methoxyphenyl)-3-oxo-N-[rac-(1R)-2-amino-2-oxo-1-phenyl-ethyl]-6,8-dihydro-5H-imidazo[1,5-a]pyrazine-1-carboxamide] | > 5000 nM
4 | COc1ccc(-n2c(C(=O)Nc3ccccc3)c3n(c2=O)CCN(C(=O)c2ccc(Cl)c(Cl)c2)C3)cc1 [Example 83, 7-(3,4-dichlorobenzoyl)-2-(4-methoxyphenyl)-3-oxo-N-phenyl-6,8-dihydro-5H-imidazo[1,5-a]pyrazine-1-carboxamide] | > 5000 nM
5 | CC(NC(=O)c1c2n(c(=O)n1-c1ccc(OCC(F)(F)F)cc1)CCN(C(=O)c1ccc(Br)c(Cl)c1)C2)c1ccc(OC2COC2)cc1F (racemic) [Example 348, 7-(4-bromo-3-chloro-benzoyl)-3-oxo-N-[rac-(1R)-1-[2-fluoro-4-(oxetan-3-yloxy)phenyl]ethyl]-2-[4-(2,2,2-trifluoroethoxy)phenyl]-6,8-dihydro-5H-imidazo[1,5-a]pyrazine-1-carboxamide] | 500 to 5000 nM
6 | COc1ccc(CNC(=O)c2c3n(c(=O)n2-c2ccc(OCC(F)(F)F)cc2)CCN(C(=O)c2ccc(Br)c(Cl)c2)C3)c(OC(F)F)c1 [Example 266] | 100 to 500 nM
7 | CC(Oc1ccc(CNC(=O)c2c3n(c(=O)n2-c2ccc(OC4CC4)cc2)CCN(C(=O)c2ccc(Br)c(Cl)c2)C3)c(F)c1)C(N)=O (racemic) [Example 394, 7-(4-bromo-3-chloro-benzoyl)-2-[4-(cyclopropoxy)phenyl]-N-[[2-fluoro-4-[rac-(1S)-2-amino-1-methyl-2-oxo-ethoxy]phenyl]methyl]-3-oxo-6,8-dihydro-5H-imidazo[1,5-a]pyrazine-1-carboxamide] | 100 to 500 nM
8 | CCOc1ccc(-n2c(C(=O)NCc3ccccc3)c3n(c2=O)CCN(C(=O)c2ccc(Cl)c(Cl)c2)C3)cc1 [Example 51, N-benzyl-7-(3,4-dichlorobenzoyl)-2-(4-ethoxyphenyl)-3-oxo-6,8-dihydro-5H-imidazo[1,5-a]pyrazine-1-carboxamide] | 500 to 5000 nM
9 | COc1ccc(-n2c(C(=O)NCc3ccccc3)c3n(c2=O)CCN(C(=O)c2cc4c(C)cccc4[nH]2)C3)cc1 [Example 55, N-benzyl-2-(4-methoxyphenyl)-7-(4-methyl-1H-indole-2-carbonyl)-3-oxo-6,8-dihydro-5H-imidazo[1,5-a]pyrazine-1-carboxamide] | 500 to 5000 nM
10 | C[C@H](Oc1ccc([C@@H](C)NC(=O)c2c3n(c(=O)n2-c2ccc(OC4CC4)cc2)CCN(C(=O)c2ccc(Br)c(Cl)c2)C3)c(F)c1)C(N)=O (stereo in doubt) [Example 356, 7-(4-bromo-3-chloro-benzoyl)-2-[4-(cyclopropoxy)phenyl]-3-oxo-N-[rac-(1R)-1-[2-fluoro-4-[rac-(1S)-2-amino-1-methyl-2-oxo-ethoxy]phenyl]ethyl]-6,8-dihydro-5H-imidazo[1,5-a]pyrazine-1-carboxamide] | 100 to 500 nM
11 | C[C@H]1Cn2c(c(C(=O)NCc3ccccc3)n(-c3ccc(OC4CC4)cc3)c2=O)CN1C(=O)c1ccc(Br)c(Cl)c1 (racemic) [Example 302, rac-(6S)-N-benzyl-7-(4-bromo-3-chloro-benzoyl)-2-[4-(cyclopropoxy)phenyl]-6-methyl-3-oxo-6,8-dihydro-5H-imidazo[1,5-a]pyrazine-1-carboxamide] | 100 to 500 nM
12 | C[C@H](NC(=O)c1c2n(c(=O)n1-c1ccc(OC3CC3)cc1)CCN(C(=O)c1ccc(Br)c(Cl)c1)C2)c1ccc(OCC#N)cc1F (stereo in doubt) [Example 343, 7-(4-bromo-3-chloro-benzoyl)-2-[4-(cyclopropoxy)phenyl]-3-oxo-N-[rac-(1S)-1-[4-(cyanomethoxy)-2-fluoro-phenyl]ethyl]-6,8-dihydro-5H-imidazo[1,5-a]pyrazine-1-carboxamide] | 100 to 500 nM
13 | C[C@@H](NC(=O)c1c2n(c(=O)n1-c1ccc(OCC(F)(F)F)cc1)CCN(C(=O)c1ccc(Br)c(Cl)c1)C2)c1ccccc1F (stereo in doubt) [Example 262, 7-(4-bromo-3-chloro-benzoyl)-3-oxo-N-[rac-(1R)-1-(2-fluorophenyl)ethyl]-2-[4-(2,2,2-trifluoroethoxy)phenyl]-6,8-dihydro-5H-imidazo[1,5-a]pyrazine-1-carboxamide] | 100 to 500 nM
14 | CC(C)Oc1ccc(-n2c(C(=O)N[C@@H](C)c3ccccc3)c3n(c2=O)CCN(C(=O)c2ccc(Br)c(Cl)c2)C3)cc1 (racemic) [Example 119, 7-(4-bromo-3-chloro-benzoyl)-2-(4-isopropoxyphenyl)-3-oxo-N-[rac-(1S)-1-phenylethyl]-6,8-dihydro-5H-imidazo[1,5-a]pyrazine-1-carboxamide] | 100 to 500 nM
15 | COc1ccc(-n2c(C(=O)N[C@H](C(N)=O)c3ccccc3)c3n(c2=O)CCN(C(=O)c2ccc(Br)c(Cl)c2)C3)cc1 (racemic) [Example 207, 7-(4-bromo-3-chloro-benzoyl)-2-(4-methoxyphenyl)-3-oxo-N-[rac-(1S)-2-amino-2-oxo-1-phenyl-ethyl]-6,8-dihydro-5H-imidazo[1,5-a]pyrazine-1-carboxamide] | > 5000 nM
16 | COc1ccc(-n2c(C(=O)NCc3ccc(Cl)c(OC)c3)c3n(c2=O)CCN(C(=O)c2ccc(Br)c(Cl)c2)C3)cc1 [Example 101, 7-(4-bromo-3-chloro-benzoyl)-N-[(4-chloro-3-methoxy-phenyl)methyl]-2-(4-methoxyphenyl)-3-oxo-6,8-dihydro-5H-imidazo[1,5-a]pyrazine-1-carboxamide] | 500 to 5000 nM
17 | COc1ccc(-n2c(C(=O)NCc3ccc(C)c(OC)c3)c3n(c2=O)CCN(C(=O)c2ccc(Cl)c(Cl)c2)C3)cc1 [Example 90, 7-(3,4-dichlorobenzoyl)-N-[(3-methoxy-4-methyl-phenyl)methyl]-2-(4-methoxyphenyl)-3-oxo-6,8-dihydro-5H-imidazo[1,5-a]pyrazine-1-carboxamide] | 500 to 5000 nM
18 | COc1ccc(-n2c(C(=O)NCc3ccc4[nH]ncc4c3)c3n(c2=O)CCN(C(=O)c2ccc(Cl)c(Cl)c2)C3)cc1 [Example 107, 7-(3,4-dichlorobenzoyl)-N-(1H-indazol-5-ylmethyl)-2-(4-methoxyphenyl)-3-oxo-6,8-dihydro-5H-imidazo[1,5-a]pyrazine-1-carboxamide] | 500 to 5000 nM
19 | O=C(NCc1ccccc1)c1c2n(c(=O)n1-c1ccc(OC3CC(F)(F)C3)cc1)CCN(C(=O)c1ccc(Br)c(Cl)c1)C2 [Example 350, N-benzyl-7-(4-bromo-3-chloro-benzoyl)-2-[4-(3,3-difluorocyclobutoxy)phenyl]-3-oxo-6,8-dihydro-5H-imidazo[1,5-a]pyrazine-1-carboxamide] | 500 to 5000 nM
20 | C[C@@H](NC(=O)c1c2n(c(=O)n1-c1ccc(OCC(F)(F)F)cc1)CCN(C(=O)c1ccc(Br)c(Cl)c1)C2)c1ccccc1 (stereo in doubt) [Example 128, 7-(4-bromo-3-chloro-benzoyl)-3-oxo-N-[rac-(1R)-1-phenylethyl]-2-[4-(2,2,2-trifluoroethoxy)phenyl]-6,8-dihydro-5H-imidazo[1,5-a]pyrazine-1-carboxamide] | 100 to 500 nM
21 | CC(C)Oc1ccc(-n2c(C(=O)NC(C)c3ccccc3)c3n(c2=O)CCN(C(=O)c2ccc(Br)c(Cl)c2)C3)cc1 (racemic) [Example 118, 7-(4-bromo-3-chloro-benzoyl)-2-(4-isopropoxyphenyl)-3-oxo-N-[rac-(1R)-1-phenylethyl]-6,8-dihydro-5H-imidazo[1,5-a]pyrazine-1-carboxamide] | 100 to 500 nM
22 | COc1ccc(-n2c(C(=O)NCc3ccccc3OC)c3n(c2=O)CCN(C(=O)c2ccc(Cl)c(Cl)c2)C3)cc1 [Example 115, 7-(3,4-dichlorobenzoyl)-2-(4-methoxyphenyl)-N-[(2-methoxyphenyl)methyl]-3-oxo-6,8-dihydro-5H-imidazo[1,5-a]pyrazine-1-carboxamide] | 100 to 500 nM
23 | O=C(NCc1ccccc1)c1c2n(c(=O)n1-c1ccc3c(c1)OCO3)CCN(C(=O)c1ccc(Cl)c(Cl)c1)C2 [Example 88, 2-(1,3-benzodioxol-5-yl)-N-benzyl-7-(3,4-dichlorobenzoyl)-3-oxo-6,8-dihydro-5H-imidazo[1,5-a]pyrazine-1-carboxamide] | 500 to 5000 nM
24 | NC(=O)COc1ccc(CNC(=O)c2c3n(c(=O)n2-c2ccc(OCC(F)(F)F)cc2)CCN(C(=O)c2ccc(Br)c(Cl)c2)C3)c(-n2cccn2)c1 [Example 328, N-[[4-(2-amino-2-oxo-ethoxy)-2-pyrazol-1-yl-phenyl]methyl]-7-(4-bromo-3-chloro-benzoyl)-3-oxo-2-[4-(2,2,2-trifluoroethoxy)phenyl]-6,8-dihydro-5H-imidazo[1,5-a]pyrazine-1-carboxamide] | 500 to 5000 nM
25 | O=C(NCc1ccccc1-c1cnccn1)c1c2n(c(=O)n1-c1ccc(OCC(F)(F)F)cc1)CCN(C(=O)c1ccc(Br)c(Cl)c1)C2 [Example 402, 7-(4-bromo-3-chloro-benzoyl)-3-oxo-N-[(2-pyrazin-2-ylphenyl)methyl]-2-[4-(2,2,2-trifluoroethoxy)phenyl]-6,8-dihydro-5H-imidazo[1,5-a]pyrazine-1-carboxamide] | < 100 nM
